{
  "source": "patent US20150158956A1",
  "about": "“MULTIVALENT ANTIVIRAL COMPOSITIONS, METHODS OF MAKING, AND USES THEREOF” (The Charles Stark Draper Laboratory, Inc., priority 2013, published 2015)",
  "key": {"RSV strain A2": {"system": "RSV strain A2", "experiment": "RSV plaque assay on Vero cell monolayers, sample pre-mixed with RSV strain A2 (Example 7)", "format": "cell-based, respiratory syncytial virus", "conditions": "in solution; Vero cells; 200 PFU RSV strain A2, 30 min at 37° C. pre-mix; read-out: concentration achieving a 50% reduction in RSV infectivity", "experimental": "The ability of liposomes to block RSV infection of Vero cells was examined. The blocking ability of liposomes was compared to purified sulfated octasaccharide, in solution, and a control, i.e., a liposome without sulfated octasaccharides. Liposomes were prepared using the method described in Example 3. […] Purified sulfated octasaccharide as described in Example 1, in solution or incorporated into liposomes, at the concentrations indicated were assessed using a plaque assay. Confluent Vero cell monolayers were formed by adding 1×10^6 Vero cells to wells of a 12-well plate then incubating the cells in 1 ml Dulbecco's Modified Eagle Medium (DMEM) with 4 mM glutamine and 10% fetal bovine serum as growth medium. The medium was removed from the cells. Sulfated octasaccharide, liposomes, or buffer at the concentrations indicated (see FIG. 5) were mixed with 200 PFU RSV strain A2 in 150 mM phosphate buffered saline for 30 min at 37° C. and the mixture was added to the monolayer surface. After one hour, the mixtures were removed, and the cells were washed and overlaid with 1 ml plaquing medium (DMEM with 4 mM glutamine, 2% FBS, and 0.4% agarose). After 5 to 7 days incubation at 37° C., the number of RSV plaques was counted. Liposome treated virus was compared to untreated virus, which represented 100% infectivity."}, "[1]": {"system": "respiratory syncytial virus (RSV)", "experiment": "RSV plaque (PFU) assay, sample added to Vero cells simultaneously with RSV (Example 6)", "format": "cell-based", "experimental": "The ability of purified sulfated octasaccharide, in solution, to block respiratory syncytial virus (RSV) infection of Vero cells was examined. The blocking ability of purified sulfated octasaccharide was compared to heparin sodium.\nPurified sulfated octasaccharide was prepared according to the method of Example 1. Vero cells were seeded into 24-well plates and incubated at 37° C. for 24 hours to form monolayers. Samples were diluted to the desired concentration in sterile DMEM in a final volume of 225 μl. Full-length heparin sodium (the starting material) or purified HSocta was added to Vero cells simultaneously with RSV that was diluted to 300 PFU/mL then incubated at 37° C. for 30 min. Vero cells were washed with PBS and samples were incubated at 37° C. for 1 hour on Vero cells and then washed with PBS and incubated with DMEM containing 10% FBS and incubated at 37° C. for 72 h. Cells were fixed and stained with anti-glycoprotein F and anti-glycoprotein G antibodies (MAB858-2 and MAB8262F Millipore, Billerica, Mass.). Plaques were visualized with anti-mouse horseradish peroxidase-conjugated secondary antibody (BD Biosciences, San Jose, Calif.) and developed with peroxidase substrate kit (Vector Laboratories, Burlingame, Calif.). Viral plaques in the Vero monolayer were counted and the PFU/mL was determined."}},
  "data": [
    {"substance": "GlcUA(2S)-GlcNS(6S)-Ido(2S)-GlcNS(6S)-Ido(2S)-GlcNS(6S)-Ido(2S)-GlcNS(6S) [purified sulfated octasaccharide]", "values": [
      {"measurement": "IC50", "setting": "RSV strain A2", "value": "~500", "unit": "µM"},
      {"measurement": "blocking PFU formation", "setting": "[1]; at 1 μg/ml or higher, RSV, Vero cells (results text says MDCK cells)", "value": "roughly 50%"},
      {"measurement": "anti-RSV properties, ability to block infection of cells", "setting": "[1]; in solution, results text says MDCK cells", "value": "strong anti-RSV properties"}
    ]}
  ]
}
